Results: patent US12383562B2, “Application of metal complex” (Hunan Fangshengtai Medical Technology Co., Ltd., priority 2019, dated 2025)

Tested on: mice with inflammatory pain
Assay: Analgesic activity: CFA-induced inflammatory pain in mice, Von Frey test (paw withdrawal threshold)
Format: in vivo, Kunming mice
Conditions: for response to the compound (pain threshold): CFA mice, intraperitoneal administration, approximately 0.03 mmol/kg (9, 10 or 11 mg/kg), seven mice; for change of paw withdrawal threshold after injection of drug: drug injected 24 hours after CFA, mice with inflammatory pain
Method: The analgesic assays of three vanadium compounds (bis(maltolato)oxovanadium, bis(ethylmaltolato)oxovanadium, and bis(kojato)oxovanadium) in mice are presented below. Some of the results are shown in FIG. 1, where S1 is bis(maltolato)oxovanadium, S2 is bis(ethylmaltolato)oxovanadium, S3 is bis(kojato)oxovanadium, and thepositive group (i.e., a positive control group) is aspirin group.
10 μl of complete Freund's adjuvant (CFA) was injected subcutaneously into the plantar surface of the left hindpaws of mice (♂ Kunming mice, 22-40 g) to produce inflammation. Von Frey tests were performed at 24 hours after injection or later to determine pain thresholds, i.e., under the guidance of a Dixon's Up-Down method, mice were induced with Von Frey fibers to have mechanical withdrawal of their hindpaws data were collected, and their 50% paw withdrawal thresholds (referred to as paw withdrawal threshold or PWT), namely the pain thresholds, were calculated. Afterwards, the mice were divided into a physiological saline group, a positive control group and a drug group, and injected intraperitoneally with 0.4 ml of physiological saline, 0.4 ml of aspirin (acetylsalicylic acid, or ASA) Tris-buffer solution at a concentration of 20 mg/ml and a mixed solution of a tested compound and 0.4 ml of cellulose solution (1%), respectively. Then, changes in the pain threshold were monitored with the Von Frey tests.

Row | Structure (SMILES) | response to the compound (pain threshold) | change of paw withdrawal threshold after injection of drug
1 | Cc1occc(=O)c1[O][V](=[O])[O]c1c(C)occc1=O [S1, bis(maltolato)oxovanadium(IV)] | all seven mice showed a response to the compound with a general increase in pain threshold | significant increase in the paw withdrawal threshold
2 | CCc1occc(=O)c1[O][V](=[O])[O]c1c(CC)occc1=O [S2, bis(ethylmaltolato)oxovanadium(IV)] | all seven mice showed a response to the compound with a general increase in pain threshold | significant increase in the paw withdrawal threshold
3 | [O]=[V-2]12([O]C3=COC(CO)=CC3=[O+]1)[O]C1=COC(CO)=CC1=[O+]2 [S3, bis(kojato)oxovanadium(IV)] | all seven mice showed a response to the compound with a general increase in pain threshold | significant increase in the paw withdrawal threshold
